Test results as given in patent US20230271956A1, “AMIDE DERIVATIVES” (Merck Patent GmbH, priority 2020, published 2023).

These molecules were tested against T1, ACSS2 (Homo sapiens, UniProt Q9NR19) (assay: Cellular assay of 14C acetate incorporation into fatty acids (IC50 ACSS2 cellular lipids)). Conditions: HCT-15 cells.
T1 construct: endogenous fatty acid synthesis activity in the human HCT-15 cancer cell line; endogenous in cells; host or cells: HCT-15
Assay type: cell-based
Procedure: This protocol describes a cellular assay capable to quantify endogenous fatty acid synthesis activity in the human HCT-15 cancer cell line following the incorporation of extracellularly administered radiolabeled ^14C acetate with a scintillation proximity based read out on extracted fatty acids.
HCT-15 cells were grown in RPMI 1640 (Gibco) supplemented with 2 mM glutamine, 1 mM sodium pyruvate 10 mM HEPES and 10 % FCS (heat-inactivated) passaged every 2-3 days to remain a subconfluent, vital culture. A working cell bank was prepared with each aliquot containing 1x10^7 viable cells. After thawing, these cells are dilute immediately 1:20 in pre-warmed (37° C.) culture medium. Cells are collected by centrifugation at 200 x g for 5 min, and the supernatant is replaced by 30 mL of fresh culture medium per aliquot to obtain a cell suspension containing 350000 cells/ml. From this cell suspension 100 µL are dispersed into each well of a collagen coated 96 well plate, (black, clear bottom, PS, F-bottom, Greiner) and culture for 24 h (37° C., 5% CO2). After incubation the culture medium is removed and the wells are washed once with 100 µL PBS++ (supplemented with Mg^2+/ Ca^2+, Gibco) and 50 µL assay medium (RPMI 1640 + 10 mM HEPES) are added to each well. Compounds serial dilutions are prepared from 10 mM stock solutions in DMSO using a fixed dilution factor (usually 1:3). After preparation of the dilution series in DMSO, the individual dilutions are further diluted in the assay medium. This working dilution is prepared such, that the concentration is 7x of the final concentration in the assay. The maximal DMSO concentration in the final assay is 0.1%.
To each well 10 µL compound working dilution or DMSO blank are added and the cells are cultured for 2 h (37° C., 5% CO2). Then 10 µL AlamarBlue reagent (Invitrogen) containing 14 µCi/mL ^14C-acetate (Perkin Elmer) are added to each well (70 µl total volume) and cells are again cultured for 2 h. Cell viability is verified by measuring the AlamarBlue fluorescence (Tecan Safire, ex: 544 nm / em: 590 nm). After incubation the culture medium is removed and the wells are carefully washed once with cold 100 µL PBS++. For cell lysis and fatty acid recovery 50 µl 0.1 M NaOH and 0.1 % Triton-X100 are added per well. The plate is sealed with PlateLoc (clear peelable heat seal, Agilent) and incubate at 70° C. for 16-24 h. After cooling to room temperature, the plates are centrifuged for 1 min at 1000 rpm and the plate seals are removed. For acidification 150 µL 0.1 M HCl are added to each well, mixed and 150 µL of the mixture are transferred into a 96 well FlashPlate (Perkin Elmer). The plates are sealed with TopSeaI-a (Perkin Elmer). To allow for the fatty acid binding to the well surfaces the plates are incubate for 4 h at 70° C. After cooling to room temperature, the plates are centrifuged for 1 min at 1000 rpm and stored for 0.5-2 h at room temperature in the dark. Radioactivity from ^14C incorporation into fatty acids in the wells is measured as CPM count in a MicroBeta scintillation counter (Perkin Elmer).

T1 sequence (Q9NR19 whole entry): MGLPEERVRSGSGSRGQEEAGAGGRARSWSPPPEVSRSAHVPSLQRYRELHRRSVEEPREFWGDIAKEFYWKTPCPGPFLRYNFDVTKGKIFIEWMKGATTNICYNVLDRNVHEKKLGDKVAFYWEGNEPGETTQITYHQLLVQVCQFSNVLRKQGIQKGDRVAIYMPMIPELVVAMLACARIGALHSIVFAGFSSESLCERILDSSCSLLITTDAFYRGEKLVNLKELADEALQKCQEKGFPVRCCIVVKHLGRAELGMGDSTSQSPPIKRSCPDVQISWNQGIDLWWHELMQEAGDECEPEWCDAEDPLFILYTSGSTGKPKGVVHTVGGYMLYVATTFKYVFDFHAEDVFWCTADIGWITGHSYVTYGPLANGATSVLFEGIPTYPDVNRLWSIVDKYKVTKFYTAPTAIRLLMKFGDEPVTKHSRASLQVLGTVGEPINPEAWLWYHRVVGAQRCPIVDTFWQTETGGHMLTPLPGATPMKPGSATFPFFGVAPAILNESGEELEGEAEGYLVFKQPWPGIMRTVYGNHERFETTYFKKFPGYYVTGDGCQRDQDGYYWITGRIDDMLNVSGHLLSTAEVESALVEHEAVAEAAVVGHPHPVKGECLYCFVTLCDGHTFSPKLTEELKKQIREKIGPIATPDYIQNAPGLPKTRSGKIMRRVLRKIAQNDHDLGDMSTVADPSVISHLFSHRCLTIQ

Row | Compound | IC50 [nM]
1 | CCc1c(C(O)(c2ccccc2)c2ccccn2)nc2cc(OC)c(C(=O)Nc3ncn(CC)n3)cn12 (racemic) [Compound 16, 3-Ethyl-2-(hydroxy-phenyl-pyridin-2-yl-methyl)-7-methoxy-imidazo[1,2-a]pyridine-6-carboxylic acid (1-ethyl-1H-[1,2,4]triazol-3-yl)-amide] | 10 to 100
2 | CCn1cnc(NC(=O)c2cc3c(nc2OC)nc(C(O)(c2ccccc2F)c2ccc(OC(F)F)cc2F)n3CC)n1 (racemic) [Compound 94, 2-{[4-(difluoromethoxy)-2-fluorophenyl](2-fluorophenyl)hydroxymethyl}-1-ethyl-N-(1-ethyl-1H-1,2,4-triazol-3-yl)-5-methoxy-1H-imidazo[4,5-b]pyridine-6-carboxamide] | 1 to 10
3 | CCn1cnc(NC(=O)c2cc3c(nc2OC)nc(C(O)(c2ccccc2)c2ccccn2)n3CC)n1 (single isomer, unassigned) [Compound 53, 1-ethyl-N-(1-ethyl-1H-1,2,4-triazol-3-yl)-2-[hydroxy(phenyl)(pyridin-2-yl)methyl]-5-methoxy-1H-imidazo[4,5-b]pyridine-6-carboxamide] | 0.01 to 1
4 | CCc1c(C(O)(c2ccccc2)c2ccccc2)nn2cc(Cl)c(C(=O)Nc3ncn(CC)n3)cc12 [Compound 1, 6-Chloro-3-ethyl-2-(hydroxy-diphenylmethyl)-pyrazolo[1,5-a]pyridine-5-carboxylic acid (1-ethyl-1H-[1,2,4]triazol-3-yl)-amide] | 0.01 to 1
5 | CCc1c(C(O)(c2ccccc2F)c2ccccc2F)nn2cc(Cl)c(C(=O)Nc3ncn(CC)n3)cc12 [Compound 2, 2-[Bis-(2-fluoro-phenyl)-hydroxy-methyl]-6-chloro-3-ethyl-pyrazolo[1,5-a]pyridine-5-carboxylic acid (1-ethyl-1H-[1,2,4]triazol-3-yl)-amide] | 0.01 to 1
6 | CCc1c(C(O)(c2ccccc2F)c2ccccc2F)nn2cc(C)c(C(=O)Nc3ncn(CC)n3)cc12 [Compound 3, 2-[Bis-(2-fluoro-phenyl)-hydroxy-methyl]-3-ethyl-6-methyl-pyrazolo[1,5-a]pyridine-5-carboxylic acid (1-ethyl-1H-[1,2,4]triazol-3-yl)-amide] | 10 to 100
7 | CCc1c(C(O)(c2ccccc2F)c2ccccc2F)nn2cc(OC)c(C(=O)Nc3cnn(CC)c3)cc12 [Compound 4, 2-[Bis-(2-fluoro-phenyl)-hydroxy-methyl]-3-ethyl-6-methoxy-pyrazolo[1,5-a]pyridine-5-carboxylic acid (1-ethyl-1H-pyrazol-4-yl)-amide] | 10 to 100
8 | CCc1c(C(O)(c2ccccc2F)c2ccccc2F)nn2ccc(C(=O)Nc3ncn(CC)n3)cc12 [Compound 5, 2-[Bis-(2-fluoro-phenyl)-hydroxy-methyl]-3-ethyl-pyrazolo[1,5-a]pyridine-5-carboxylic acid (1-ethyl-1H-[1,2,4]triazol-3-yl)-amide] | 0.01 to 1
9 | CCc1c(C(O)(c2ccccc2)c2ccccc2)nn2cc(Cl)c(C(=O)Nc3cnn(CC)c3)cc12 [Compound 6, 6-Chloro-3-ethyl-2-(hydroxy-diphenylmethyl)-pyrazolo[1,5-a]pyridine-5-carboxylic acid (1-ethyl-1H-pyrazol-4-yl)-amide] | 1 to 10
10 | CCc1c(C(O)(c2ccccc2)c2ccccc2)nn2cc(OC)c(C(=O)Nc3cnn(CC)c3)cc12 [Compound 8, 3-Ethyl-2-(hydroxy-diphenyl-methyl)-6-methoxy-pyrazolo[1,5-a]pyridine-5-carboxylic acid (1-ethyl-1H-pyrazol-4-yl)-amide] | 10 to 100
11 | CCc1c(C(O)(c2ccccc2)c2ccccc2)nn2ccc(C(=O)Nc3ncn(CC)n3)cc12 [Compound 9, 3-Ethyl-2-(hydroxy-diphenyl-methyl)-pyrazolo[1,5-a]pyridine-5-carboxylic acid (1-ethyl-1H-[1,2,4]triazol-3-yl)-amide] | 0.01 to 1
12 | CCc1c(C(O)(c2ccccc2)c2ccccc2)nn2ccc(C(=O)Nc3cnn(CC)c3)cc12 [Compound 10, 3-Ethyl-2-(hydroxy-diphenyl-methyl)-pyrazolo[1,5-a]pyridine-5-carboxylic acid (1-ethyl-1H-pyrazol-4-yl)-amide] | 10 to 100
13 | CCc1c(C(O)(c2ccccc2)c2ccccc2)nn2cc(OC)c(C(=O)Nc3ncn(CC)n3)cc12 [Compound 11, 3-Ethyl-2-(hydroxy-diphenyl-methyl)-6-methoxy-pyrazolo[1,5-a]pyridine-5-carboxylic acid (1-ethyl-1H-[1,2,4]triazol-3-yl)-amide] | 1 to 10
14 | CCc1c(C(O)(c2ccccc2)c2ccccc2)nc2ccc(C(=O)Nc3cnn(CC)c3)cn12 [Compound 13, 3-Ethyl-2-(hydroxy-diphenyl-methyl)-imidazo[1,2-a]pyridine-6-carboxylic acid (1-ethyl-1H-pyrazol-4-yl)-amide] | 100 to 10000
15 | CCc1c(C(O)(c2ccccc2)c2ccccc2)nc2cc(Cl)c(C(=O)Nc3ncn(CC)n3)cn12 [Compound 14, 7-Chloro-3-ethyl-2-(hydroxy-diphenylmethyl)-imidazo[1,2-a]pyridine-6-carboxylic acid (1-ethyl-1H-[1,2,4]triazol-3-yl)-amide] | 1 to 10
16 | CCc1c(C(O)(c2ccccc2)c2ccccc2)nc2cc(Cl)c(C(=O)Nc3cnn(CC)c3)cn12 [Compound 19, 7-Chloro-3-ethyl-2-(hydroxy-diphenylmethyl)-imidazo[1,2-a]pyridine-6-carboxylic acid (1-ethyl-1H-pyrazol-4-yl)-amide] | 10 to 100
17 | CCc1c(C(O)(c2ccccc2)c2ccccc2)nc2cc(F)c(C(=O)Nc3ncn(CC)n3)cn12 [Compound 20, 3-Ethyl-7-fluoro-2-(hydroxy-diphenylmethyl)-imidazo[1,2-a]pyridine-6-carboxylic acid (1-ethyl-1H-[1,2,4]triazol-3-yl)-amide] | 1 to 10
18 | CCc1c(C(O)(c2ccccc2)c2ccccc2)nc2cc(OC)c(C(=O)Nc3cnn(CC)c3)cn12 [Compound 23, 3-Ethyl-2-(hydroxy-diphenyl-methyl)-7-methoxy-imidazo[1,2-a]pyridine-6-carboxylic acid (1-ethyl-1H-pyrazol-4-yl)-amide] | 10 to 100
19 | CCc1c(C(O)(c2ccccc2)c2ccccc2)nc2cc(OC)c(C(=O)Nc3ncn(CC)n3)cn12 [Compound 24, 3-Ethyl-2-(hydroxy-diphenyl-methyl)-7-methoxy-imidazo[1,2-a]pyridine-6-carboxylic acid (1-ethyl-1H-[1,2,4]triazol-3-yl)-amide] | 1 to 10
20 | CCc1c(C(O)(c2ccccc2)c2ccccc2)nc2ccc(C(=O)Nc3ncn(CC)n3)cn12 [Compound 25, 3-Ethyl-2-(hydroxy-diphenyl-methyl)-imidazo[1,2-a]pyridine-6-carboxylic acid (1-ethyl-1H-[1,2,4]triazol-3-yl)-amide] | 1 to 10
21 | CCc1c(C(O)(c2ccccc2F)c2ccccc2F)nc2cc(OC)c(C(=O)Nc3ncn(CC)n3)cn12 [Compound 28, 2-[Bis-(2-fluoro-phenyl)-hydroxy-methyl]-3-ethyl-7-methoxy-imidazo[1,2-a]pyridine-6-carboxylic acid (1-ethyl-1H-[1,2,4]triazol-3-yl)-amide] | 1 to 10
22 | CCc1c(C(O)(c2ccccc2F)c2ccccc2F)nc2cc(OC)c(C(=O)Nc3cnn(CC)c3)cn12 [Compound 30, 2-[Bis-(2-fluoro-phenyl)-hydroxy-methyl]-3-ethyl-7-methoxy-imidazo[1,2-a]pyridine-6-carboxylic acid (1-ethyl-1H-pyrazol-4-yl)-amide] | 0.01 to 1
23 | CCc1c(C(O)(c2ccccc2F)c2ccccc2F)nc2cc(Cl)c(C(=O)Nc3ncn(CC)n3)cn12 [Compound 31, 2-[Bis-(2-fluoro-phenyl)-hydroxy-methyl]-7-chloro-3-ethyl-imidazo[1,2-a]pyridine-6-carboxylic acid (1-ethyl-1H-[1,2,4]triazol-3-yl)-amide] | 1 to 10
24 | CCn1cnc(NC(=O)c2cc3c(nc2F)nc(C(O)(c2ccccc2)c2ccccc2)n3CC)n1 [Compound 89, 1-ethyl-N-(1-ethyl-1H-1,2,4-triazol-3-yl)-5-fluoro-2-(hydroxydiphenylmethyl)-1H-imidazo[4,5-b]pyridine-6-carboxamide] | 1 to 10
